Source: patent US20260092070A1, “INHIBITORS OF CANINE JANUS KINASE AND USES THEREOF” (ANIMOL DISCOVERY, INC., priority 2023, published 2026)

Columns and labels:
Human TYK-2 = biological target: T1, Human TYK-2 (Homo sapiens, UniProt P29597); assay: JAK enzymatic assay (Eurofins KinaseProfiler/IC50Profiler, radiometric), TYK-2; type: biochemical; conditions: human TYK-2 enzyme, 9 concentrations; read-out: TYK2 affinity (IC50) category
T1 construct: purchased Eurofins Discovery (KinaseProfiler / IC50Profiler service)
T1 sequence (P29597 whole entry): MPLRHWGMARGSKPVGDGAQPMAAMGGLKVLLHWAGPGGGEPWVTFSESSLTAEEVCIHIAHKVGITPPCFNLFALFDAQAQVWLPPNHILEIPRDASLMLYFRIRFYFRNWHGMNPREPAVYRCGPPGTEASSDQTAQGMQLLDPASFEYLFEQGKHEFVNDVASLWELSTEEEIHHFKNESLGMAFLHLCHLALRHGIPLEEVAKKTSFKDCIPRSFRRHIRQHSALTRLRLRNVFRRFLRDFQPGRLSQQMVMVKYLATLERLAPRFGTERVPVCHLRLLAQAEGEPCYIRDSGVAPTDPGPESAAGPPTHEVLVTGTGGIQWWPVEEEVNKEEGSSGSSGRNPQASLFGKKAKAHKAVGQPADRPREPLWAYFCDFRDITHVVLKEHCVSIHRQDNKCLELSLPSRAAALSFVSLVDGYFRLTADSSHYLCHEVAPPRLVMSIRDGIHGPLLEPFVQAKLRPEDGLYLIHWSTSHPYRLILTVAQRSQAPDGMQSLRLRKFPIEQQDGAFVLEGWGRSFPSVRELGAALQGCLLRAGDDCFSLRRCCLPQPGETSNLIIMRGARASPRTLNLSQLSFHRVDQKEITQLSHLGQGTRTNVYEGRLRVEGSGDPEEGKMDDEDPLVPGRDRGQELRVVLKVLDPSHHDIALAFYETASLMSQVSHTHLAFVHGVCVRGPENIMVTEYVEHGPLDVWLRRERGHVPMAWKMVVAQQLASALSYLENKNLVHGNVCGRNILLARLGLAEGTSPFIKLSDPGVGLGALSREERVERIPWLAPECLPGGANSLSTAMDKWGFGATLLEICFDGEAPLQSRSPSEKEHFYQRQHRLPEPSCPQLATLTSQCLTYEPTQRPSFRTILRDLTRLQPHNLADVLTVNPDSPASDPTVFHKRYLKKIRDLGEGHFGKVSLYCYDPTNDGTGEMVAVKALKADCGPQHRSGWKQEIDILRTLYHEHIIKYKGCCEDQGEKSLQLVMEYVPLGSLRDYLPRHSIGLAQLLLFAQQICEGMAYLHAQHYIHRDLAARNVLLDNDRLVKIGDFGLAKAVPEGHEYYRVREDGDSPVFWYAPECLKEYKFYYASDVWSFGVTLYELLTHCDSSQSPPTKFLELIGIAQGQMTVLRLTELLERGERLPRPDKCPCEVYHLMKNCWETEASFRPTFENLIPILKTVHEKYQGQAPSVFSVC
Protocol: Human TYK-2 (Uniprot ID: P29597) was incubated with 8 mM MOPS pH 7.0, 0.2 mM EDTA, 250 μM […]

Human JAK-2 = Human JAK-2 (Homo sapiens, UniProt O60674); assay: JAK enzymatic assay (Eurofins KinaseProfiler/IC50Profiler, radiometric), JAK-2; type: biochemical; conditions: human JAK-2 enzyme, 9 concentrations; read-out: JAK2 affinity (IC50) category
Sequence of Human JAK-2 (O60674 whole entry): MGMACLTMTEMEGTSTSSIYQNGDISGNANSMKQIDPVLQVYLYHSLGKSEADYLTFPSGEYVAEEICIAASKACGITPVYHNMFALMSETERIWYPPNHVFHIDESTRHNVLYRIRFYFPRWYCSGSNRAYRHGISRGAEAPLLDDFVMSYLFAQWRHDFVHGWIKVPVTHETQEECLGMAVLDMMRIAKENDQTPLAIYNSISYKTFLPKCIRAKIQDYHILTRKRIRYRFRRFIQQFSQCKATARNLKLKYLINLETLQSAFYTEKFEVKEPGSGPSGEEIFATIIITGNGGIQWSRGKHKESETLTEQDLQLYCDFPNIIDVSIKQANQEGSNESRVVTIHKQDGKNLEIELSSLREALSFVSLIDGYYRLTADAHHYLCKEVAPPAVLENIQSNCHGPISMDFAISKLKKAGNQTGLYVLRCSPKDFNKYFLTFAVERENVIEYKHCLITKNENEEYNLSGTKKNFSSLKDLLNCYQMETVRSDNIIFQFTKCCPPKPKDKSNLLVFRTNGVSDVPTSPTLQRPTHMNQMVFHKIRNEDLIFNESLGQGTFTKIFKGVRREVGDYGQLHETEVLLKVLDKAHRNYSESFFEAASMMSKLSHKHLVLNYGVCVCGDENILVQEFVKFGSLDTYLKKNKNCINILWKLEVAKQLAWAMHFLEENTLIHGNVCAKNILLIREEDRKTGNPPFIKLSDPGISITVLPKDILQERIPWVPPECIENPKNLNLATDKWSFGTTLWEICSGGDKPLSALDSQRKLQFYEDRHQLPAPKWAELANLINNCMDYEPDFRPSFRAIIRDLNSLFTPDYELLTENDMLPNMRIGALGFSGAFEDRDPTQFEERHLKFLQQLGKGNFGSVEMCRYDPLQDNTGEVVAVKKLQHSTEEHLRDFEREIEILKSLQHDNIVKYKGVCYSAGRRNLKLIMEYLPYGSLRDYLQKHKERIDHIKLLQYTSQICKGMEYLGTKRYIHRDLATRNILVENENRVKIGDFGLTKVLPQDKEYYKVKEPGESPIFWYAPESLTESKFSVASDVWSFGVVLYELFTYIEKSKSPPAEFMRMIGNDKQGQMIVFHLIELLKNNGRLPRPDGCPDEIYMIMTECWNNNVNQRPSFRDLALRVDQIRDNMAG
Protocol: (§1) All enzyme assays were conducted according to Eurofins Discovery's KinaseProfiler™ and IC50Profiler™ services.
(SEQ ID NO: 2) peptide substrate, 10 mM magnesium acetate and [gamma-33P]-ATP (specific activity and concentration as required). The reaction was initiated by the addition of the Mg/ATP mix. After incubation for 40 minutes at room temperature, the reaction was stopped by the addition of phosphoric acid to a concentration of 0.5%. An aliquot of the reaction was then spotted onto a filter and washed four times for 4 minutes in 0.425% phosphoric acid and once with methanol prior to drying and scintillation counting.
(§2) Data was then imported into an internal application where each data point was expressed as % inhibition based on uninhibited and no enzyme controls.

JAK-1 = JAK-1 (Homo sapiens, UniProt P23458); assay: JAK enzymatic assay (Eurofins KinaseProfiler/IC50Profiler, radiometric), JAK-1; conditions: for JAK1/JAK2 selectivity: selectivity IC50 ratio for JAK1 versus JAK2, human enzymes
Sequence of JAK-1 (P23458 whole entry): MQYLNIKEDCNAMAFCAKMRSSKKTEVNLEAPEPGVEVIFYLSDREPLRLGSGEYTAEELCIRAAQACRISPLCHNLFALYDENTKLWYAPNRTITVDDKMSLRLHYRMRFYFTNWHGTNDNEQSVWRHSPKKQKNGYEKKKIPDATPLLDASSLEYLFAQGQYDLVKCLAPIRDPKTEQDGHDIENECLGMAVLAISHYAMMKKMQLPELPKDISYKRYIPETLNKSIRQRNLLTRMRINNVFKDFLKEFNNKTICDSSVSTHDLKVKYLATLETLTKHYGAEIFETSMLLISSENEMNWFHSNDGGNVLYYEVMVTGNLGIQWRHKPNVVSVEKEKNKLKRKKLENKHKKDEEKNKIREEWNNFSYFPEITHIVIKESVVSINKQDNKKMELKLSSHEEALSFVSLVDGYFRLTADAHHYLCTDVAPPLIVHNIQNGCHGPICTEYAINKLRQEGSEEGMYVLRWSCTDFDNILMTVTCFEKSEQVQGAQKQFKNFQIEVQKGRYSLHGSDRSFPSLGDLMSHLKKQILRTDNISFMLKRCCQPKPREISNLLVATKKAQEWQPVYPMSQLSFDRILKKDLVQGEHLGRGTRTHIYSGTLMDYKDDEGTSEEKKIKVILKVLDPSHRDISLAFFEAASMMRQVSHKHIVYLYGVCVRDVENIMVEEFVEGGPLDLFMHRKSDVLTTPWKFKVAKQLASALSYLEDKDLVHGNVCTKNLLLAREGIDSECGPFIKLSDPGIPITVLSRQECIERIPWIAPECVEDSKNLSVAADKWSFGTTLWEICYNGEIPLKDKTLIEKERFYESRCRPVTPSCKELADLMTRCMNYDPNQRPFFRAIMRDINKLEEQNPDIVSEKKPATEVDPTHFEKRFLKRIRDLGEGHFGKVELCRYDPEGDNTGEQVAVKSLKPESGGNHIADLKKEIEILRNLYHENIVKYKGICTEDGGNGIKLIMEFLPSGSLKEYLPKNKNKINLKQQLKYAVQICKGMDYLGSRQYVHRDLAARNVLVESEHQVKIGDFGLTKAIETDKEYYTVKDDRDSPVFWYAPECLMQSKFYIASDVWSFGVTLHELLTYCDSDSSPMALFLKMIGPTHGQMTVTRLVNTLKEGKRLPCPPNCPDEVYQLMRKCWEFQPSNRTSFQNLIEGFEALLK
Protocol: as §1
(SEQ ID NO.: 1) peptide substrate, 10 mM magnesium acetate and [gamma-33P]-ATP (specific activity and concentration as required). The reaction was initiated by the addition of the Mg/ATP mix. After incubation for 40 minutes at room temperature, the reaction was stopped by the addition of phosphoric acid to a concentration of 0.5%. An aliquot of the reaction was then spotted onto a filter and washed four times for 4 minutes in 0.425% phosphoric acid and once with methanol prior to drying and scintillation counting. A known inhibitor, Staurosporine, was used as a positive control for the assay.
Data was then imported into an internal application where each data point was expressed as % inhibition based on uninhibited and no enzyme controls. […] Inhibition values for the JAK enzymes (IC50 values) for each compound were stratified into four groups.

Human JAK-3 = biological target: T2, Human JAK-3 (Homo sapiens, UniProt P52333); assay: JAK enzymatic assay (Eurofins KinaseProfiler/IC50Profiler, radiometric), JAK-3; type: biochemical; conditions: human JAK-3 enzyme, 9 concentrations; read-out: JAK3 affinity (IC50) category
T2 construct: purchased Eurofins Discovery (KinaseProfiler / IC50Profiler service)
T2 sequence (P52333 1-1124): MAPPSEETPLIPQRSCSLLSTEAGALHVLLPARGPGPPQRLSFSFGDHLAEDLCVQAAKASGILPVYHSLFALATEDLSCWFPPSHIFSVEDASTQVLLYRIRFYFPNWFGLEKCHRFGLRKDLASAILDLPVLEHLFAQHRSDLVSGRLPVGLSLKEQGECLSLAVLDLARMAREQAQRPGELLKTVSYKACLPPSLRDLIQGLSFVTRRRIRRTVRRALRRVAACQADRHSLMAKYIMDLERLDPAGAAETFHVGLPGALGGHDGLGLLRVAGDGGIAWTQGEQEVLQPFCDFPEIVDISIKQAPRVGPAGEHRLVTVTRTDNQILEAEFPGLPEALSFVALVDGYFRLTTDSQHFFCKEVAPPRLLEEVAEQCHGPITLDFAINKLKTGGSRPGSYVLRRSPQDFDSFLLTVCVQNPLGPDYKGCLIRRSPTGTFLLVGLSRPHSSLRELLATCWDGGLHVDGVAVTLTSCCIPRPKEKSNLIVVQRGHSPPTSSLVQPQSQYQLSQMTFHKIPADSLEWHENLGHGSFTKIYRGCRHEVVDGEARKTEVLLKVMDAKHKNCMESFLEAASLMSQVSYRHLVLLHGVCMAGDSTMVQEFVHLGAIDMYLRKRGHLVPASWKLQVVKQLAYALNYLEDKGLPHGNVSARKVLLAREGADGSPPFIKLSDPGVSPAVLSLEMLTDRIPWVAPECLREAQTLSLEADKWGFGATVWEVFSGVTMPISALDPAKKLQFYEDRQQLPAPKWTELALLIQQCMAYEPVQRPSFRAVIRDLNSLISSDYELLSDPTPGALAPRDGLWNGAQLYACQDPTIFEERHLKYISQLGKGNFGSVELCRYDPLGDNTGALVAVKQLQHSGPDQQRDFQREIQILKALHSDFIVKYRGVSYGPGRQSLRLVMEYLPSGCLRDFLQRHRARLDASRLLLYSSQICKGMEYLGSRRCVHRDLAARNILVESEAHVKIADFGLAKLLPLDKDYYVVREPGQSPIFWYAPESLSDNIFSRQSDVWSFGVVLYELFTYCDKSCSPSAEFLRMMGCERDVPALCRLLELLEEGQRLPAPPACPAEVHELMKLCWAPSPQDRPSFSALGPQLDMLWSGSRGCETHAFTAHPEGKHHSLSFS
Protocol: as §1
(SEQ ID NO: 3) peptide substrate, 10 mM magnesium acetate and [gamma-33P]-ATP (specific activity and concentration as required). The reaction was initiated by the addition of the Mg/ATP mix. After incubation for 40 minutes at room temperature, the reaction was stopped by the addition of phosphoric acid to a concentration of 0.5%. An aliquot of the reaction was then spotted onto a filter and washed four times for 4 minutes in 0.425% phosphoric acid and once with methanol prior to drying and scintillation counting.
as §2

| IC50 (Human TYK-2) [µM] | IC50 (Human JAK-2) [µM] | IC50 (JAK-1) [µM] | IC50 (Human JAK-3) [µM] | JAK1/JAK2 selectivity (JAK-1) | SMILES |
| --- | --- | --- | --- | --- | --- |
| > 1 | > 1 | 0.5 to 1 | > 1 | – | COc1cc(NC(=O)CN2CCN(c3ncnc4[nH]ccc34)CC2)ccc1S(=O)(=O)N(C)C [Compound 1, 2-(4-(7H-pyrrolo[2,3-d]pyrimidin-4-yl)piperazin-1-yl)-N-(4-(N, N-dimethylsulfamoyl)-3-methoxyphenyl) acetamide] |
| > 1 | > 1 | – | > 1 | – | CN(C)S(=O)(=O)c1ccc(NC(=O)CN2CCN(c3ncnc4[nH]ccc34)CC2)cc1Cl [Compound 6, 2-(4-(7H-pyrrolo[2,3-d]pyrimidin-4-yl)piperazin-1-yl)-N-(3-chloro-4-(N,N-dimethylsulfamoyl)phenyl)acetamide] |
| – | > 1 | < 0.25 | > 1 | 8 | CC(C)NS(=O)(=O)c1ccc(NC(=O)[C@H](C)N2CCN(c3ncnc4[nH]ccc34)CC2)cc1 [Compound 19, (S)-2-(4-(7H-pyrrolo[2,3-d]pyrimidin-4-yl)piperazin-1-yl)-N-(4-(N-isopropylsulfamoyl)phenyl)propenamide] |
| – | > 1 | > 1 | – | – | CC1CCCN(C(=O)C2CCN(C(=O)CN3CCN(c4nc[nH]c5nccc4-5)CC3)CC2)C1 (stereo not drawn) [Compound 23, 1-[4-(3-methylpiperidine-1-carbonyl)piperidin-1-yl]-2-(4-[1H-pyrrolo[2,3-d]pyrimidin-4-yl]piperazin-1-yl)ethan-1-one] |
| – | > 1 | > 1 | – | – | CC(C)N(C)C(=O)C1CCN(C(=O)CN2CCN(c3nc[nH]c4nccc3-4)CC2)CC1 [Compound 24, N-methyl-N-(propan-2-yl)-1-[2-(4-{1H-pyrrolo[2,3-d]pyrimidin-4-yl}piperazin-1-yl)acetyl]piperidine-4-carboxamide] |
| – | < 0.25 | < 0.25 | – | 1 | O=C(CN1CCN(c2nc[nH]c3nccc2-3)CC1)Nc1ccc(S(=O)(=O)Nc2ncccn2)cc1 [Compound 25, N-{4-[(pyrimidin-2-yl)sulfamoyl]phenyl}-2-(4-{1H-pyrrolo[2,3-d]pyrimidin-4-yl}piperazin-1-yl)acetamide] |
| – | > 1 | 0.25 to 0.5 | – | >22 | O=C(CN1CCN(c2nc[nH]c3nccc2-3)CC1)N1CCC(Cc2ccccc2)CC1 [Compound 26, 1-(4-benzylpiperidin-1-yl)-2-(4-{1H-pyrrolo[2,3-d]pyrimidin-4-yl}piperazin-1-yl)ethan-1-one] |
| – | > 1 | < 0.25 | – | 14 | NS(=O)(=O)c1cccc(NC(=O)CN2CCN(c3nc[nH]c4nccc3-4)CC2)c1 [Compound 27, 2-(4-{1H-pyrrolo[2,3-d]pyrimidin-4-yl}piperazin-1-yl)-N-(3-sulfamoylphenyl)acetamide] |
| – | > 1 | 0.25 to 0.5 | – | 19 | O=C(CN1CCN(c2nc[nH]c3nccc2-3)CC1)N1CCN(C(=O)Nc2ccccc2)CC1 [Compound 28, N-phenyl-4-[2-(4-{1H-pyrrolo[2,3-d]pyrimidin-4-yl}piperazin-1-yl)acetyl]piperazine-1-carboxamide] |
| – | > 1 | 0.5 to 1 | – | 11 | CN(C)S(=O)(=O)c1cccc(NC(=O)CN2CCN(c3nc[nH]c4nccc3-4)CC2)c1 [Compound 29, N-[3-(dimethylsulfamoyl)phenyl]-2-(4-{1H-pyrrolo[2,3-d]pyrimidin-4-yl}piperazin-1-yl)acetamide] |
| – | > 1 | > 1 | – | 6 | O=C(CN1CCN(c2nc[nH]c3nccc2-3)CC1)Nc1cccc(S(=O)(=O)N2CCOCC2)c1 [Compound 30, N-[3-(morpholine-4-sulfonyl)phenyl]-2-(4-{1H-pyrrolo[2,3-d]pyrimidin-4-yl}piperazin-1-yl)acetamide] |
| – | > 1 | < 0.25 | – | 4 | O=C(CN1CCN(c2nc[nH]c3nccc2-3)CC1)Nc1ccc(S(=O)(=O)N2CCCCC2)cc1 [Compound 31, N-[4-(piperidine-1-sulfonyl)phenyl]-2-(4-{1H-pyrrolo[2,3-d]pyrimidin-4-yl}piperazin-1-yl)acetamide] |
| – | > 1 | 0.25 to 0.5 | – | 23 | O=C(CN1CCN(c2nc[nH]c3nccc2-3)CC1)Nc1cccc(S(=O)(=O)N2CCCC2)c1 [Compound 32, N-[3-(pyrrolidine-1-sulfonyl)phenyl]-2-(4-{1H-pyrrolo[2,3-d]pyrimidin-4-yl}piperazin-1-yl)acetamide] |
| – | > 1 | < 0.25 | – | >100 | O=C(CN1CCN(c2nc[nH]c3nccc2-3)CC1)Nc1ccc(/N=N/c2ccccc2)cc1 [Compound 33, N-[4-(2-phenyldiazen-1-yl)phenyl]-2-(4-{1H-pyrrolo[2,3-d]pyrimidin-4-yl}piperazin-1-yl)acetamide] |
| – | > 1 | 0.25 to 0.5 | – | 23 | CN(C)S(=O)(=O)c1cc(NC(=O)CN2CCN(c3nc[nH]c4nccc3-4)CC2)ccc1Cl [Compound 34, N-[4-chloro-3-(dimethylsulfamoyl)phenyl]-2-(4-{1H-pyrrolo[2,3-d]pyrimidin-4-yl}piperazin-1-yl)acetamide] |
| – | > 1 | 0.5 to 1 | – | 11 | Cc1ccc(NC(=O)CN2CCN(c3nc[nH]c4nccc3-4)CC2)cc1S(=O)(=O)N(C)C [Compound 35, N-[3-(dimethylsulfamoyl)-4-methylphenyl]-2-(4-{1H-pyrrolo[2,3-d]pyrimidin-4-yl}piperazin-1-yl)acetamide] |
| – | > 1 | > 1 | – | 9 | CC(C(=O)Nc1cccc(S(=O)(=O)N(C)C)c1)N1CCN(c2nc[nH]c3nccc2-3)CC1 (stereo not drawn) [Compound 36] |
| – | > 1 | 0.25 to 0.5 | – | 15 | CC(C)N(C)S(=O)(=O)c1ccc(NC(=O)CN2CCN(c3nc[nH]c4nccc3-4)CC2)cc1 [Compound 37, N-{4-[methyl(propan-2-yl)sulfamoyl]phenyl}-2-(4-{1H-pyrrolo[2,3-d]pyrimidin-4-yl}piperazin-1-yl)acetamide] |
| – | > 1 | 0.5 to 1 | – | 6 | NS(=O)(=O)c1cccc(NC(=O)CCN2CCN(c3nc[nH]c4nccc3-4)CC2)c1 [Compound 38] |
| – | > 1 | 0.5 to 1 | – | 1 | O=C(CCN1CCN(c2nc[nH]c3nccc2-3)CC1)Nc1cccc(S(=O)(=O)N2CCCC2)c1 [Compound 39] |
| – | > 1 | 0.25 to 0.5 | – | 11 | CN(C)S(=O)(=O)c1ccc(NC(=O)CCN2CCN(c3nc[nH]c4nccc3-4)CC2)cc1 [Compound 40] |
| – | > 1 | 0.5 to 1 | – | 10 | CN(C)S(=O)(=O)c1ccccc1CNC(=O)CN1CCN(c2nc[nH]c3nccc2-3)CC1 [Compound 41, N-{[2-(dimethylsulfamoyl)phenyl]methyl}-2-(4-{1H-pyrrolo[2,3-d]pyrimidin-4-yl}piperazin-1-yl)acetamide] |

| SMILES | IC50 (Human TYK-2) [µM] | IC50 (Human JAK-2) [µM] | IC50 (JAK-1) [µM] | IC50 (Human JAK-3) [µM] | JAK1/JAK2 selectivity (JAK-1) |
| --- | --- | --- | --- | --- | --- |
| CCN(CC)S(=O)(=O)c1ccc(NC(=O)CN2CCN(c3ncnc4[nH]ccc34)CC2)cc1 [Compound 15, 2-(4-(7H-pyrrolo[2,3-d]pyrimidin-4-yl)piperazin-1-yl)-N-(4-(N,N-diethylsulfamoyl)phenyl)acetamide] | – | > 1 | 0.25 to 0.5 | – | 9 |
| O=C(Nc1ccccc1)C1CCN(C(=O)CN2CCN(c3ncnc4[nH]ccc34)CC2)CC1 [Compound 16, 1-(2-(4-(7H-pyrrolo[2,3-d]pyrimidin-4-yl)piperazin-1-yl)acetyl)-N-phenylpiperidine-4-carboxamide] | – | > 1 | 0.25 to 0.5 | – | 19 |
